# Data as given in patent publication US12637498B2, “PDLIM2 as a biomarker for cancer and as an anti-cancer treatment target” (UNIVERSITY OF PITTSBURGH—OF THE COMMONWEALTH SYSTEM OF …, priority 2019, dated 2026).
# Entries after “also recorded” stand apart in the source; their conditions may differ.
# Key:
# [1] = Toxicity: animal body weight and H&E staining of major organs; type: in vivo, mouse; settings: mice with lung cancer; 1 mg/kg of 5-aza-dC and MS-275 twice per week for 6 weeks
# PDLIM2 [2] = test: qPCR of PDLIM2 in RAW264.7 macrophages; type: cell-based, mouse
# From the text: The indicated tissues or cells were subjected to RNA extraction, RNA reverse transcription and real-time PCR using trizol, reverse transcriptase, and Power SYBR Green PCR Master Mix (Thermo Fisher Scientific, Waltham, MA USA).
# BACH1 [3] = test: ChIP and nuclear fraction IB of BACH1 in RAW264.7 macrophages; type: cell-based, mouse
# Experimental: Cells were collected after formaldehyde treatment. The chromatin DNA was extracted, broken into fragments of 300-1000 bp in length by sonication, and immunoprecipitated with antibodies to the target. IgG was used in immunoprecipitation as a control for nonspecific signal. DNA in the immunoprecipitation product was amplified by PCR.
# Whole-cell extracts were prepared by lysing cells in RIPA buffer. Nuclear extracts were prepared by lysing pellets in insoluble nuclear buffer (20 mM Tris, pH 8.0, 150 mM NaCl, 1% [wt/vol] SDS, 1% [vol/vol] NP-40, and 10 mM iodoacetamide) after the cytoplasm was extracted with the hypotonic buffer (20 mM HEPES, pH 8.0, 10 mM KCl, 1 mM MgCl2, 0.1% [vol/vol] Triton X-100, and 20% [vol/vol] glycerol). The purity of the nuclear fractions was confirmed by checking Hsp90 (cytoplasm) or lamin B/C (nuclear fraction). All the lysis buffers were supplemented with 1 mM PMSF and a protease inhibitor cocktail (Roche Molecular Biochemicals). The cell extracts were used for […]. Briefly, the cell extracts were separated on polyacrylamide gels followed by electrotransfer onto nitrocellulose membranes. […] Specific immune complexes were detected by enhanced chemiluminescence as specified by the manufacturer (Western Lightning ECL Pro; Amersham).
# BACH1 [4] = test: IF analysis of BACH1 nuclear translocation in AMs of mice with lung tumors; set-up: species or system mouse; settings: mice with lung tumors (urethane); in vivo treatment, 5 mg/ml in drinking water
# Experimental: (§1) The animal experiments were performed in accordance with the US National Institutes of Health (NIH) Guidelines on the Use of Laboratory Animals. All animals were maintained under pathogen-free conditions. […], […] and Lysozyme M-Cre mice have been described before (Sun et al., Nat Commun 2019; 10:5324; Zhou et al., Oncogene 2015; 34:3804-3814; Zhou et al., Cancer Immunol Res 2017; 5:257-268; Li et al., Oncoimmunology 2018; 7:e1435250). Luciferase-expressing mice, PD-1 deficient mice and CD80/CD86 deficient mice were purchased from The Jackson Laboratory. Except for the PD-1 deficient mice and CD80/CD86 deficient mice, which are under […] background, all other mice were backcrossed to FVB/N mice (The Jackson Laboratory) for more than ten generations, and then used to generate the experimental mice. […] Louis, MO, USA) once a week for six consecutive weeks (8-10). […] Surface tumors in mouse lungs were counted by three blinded readers under a dissecting microscope, and tumor diameters were measured by microcalipers. […] Stained proteins and their subcellular localizations were detected using a fluorescence microscope.
# PDLIM2 [5] = test: qPCR and IF of PDLIM2 in AMs of mice with lung tumors; set-up: species or system mouse; settings: mice with lung tumors (urethane); in vivo treatment
# Experimental: as §1, with “microscope. […]” for “microscope.”
# PDLIM2 [6] = test: qPCR analysis of PDLIM2 expression in human lung cancer cell lines; type: cell-based
# [7] = system: lung cancer induced by urethane; test: Urethane model of lung cancer, tumor examination; type: in vivo, mouse; settings: for tumor number and tumor burden: WT mice, carboplatin and paclitaxel together
# Experimental: (§2) Urethane model: 6-8-week-old mice under FVB/N background were intraperitoneally (i.p.) injected with urethane (1 g/kg body weight, Sigma-Aldrich, St. Louis, MO, USA) once a week for six weeks. All mice were sacrificed for lung tumor examinations seven (for no drug treatment experiments) or six (for drug treatment experiments) weeks post urethane treatment. For drug treatment experiments, the epigenetic agents 5-aza-dC (1 mg/kg body weight, Sigma-Aldrich, St. Louis, MO, USA) and MS-275 (1 mg/kg body weight, Selleckchem, Houston, TX, USA), chemotherapeutic drugs carboplatin (30 mg/kg body weight, AdipoGen, San Diego, CA, USA) and paclitaxel (15 mg/kg body weight, AdipoGen, San Diego, CA, USA), and/or PD-1 neutralizing antibody (200 μg/mouse, BioXCell, West Lebanon, NH, USA) were i.p injected as indicated in FIG. 4. Surface tumors in mouse lungs were counted by three blinded readers under a dissecting microscope, and tumor diameters were measured by microcalipers. K-Ras^G12D model: 6-8-week-old mice under FVB/N background were intranasally administered 1×10^7 plaque-forming units of Cre-expressing adenovirus (adenocre; Gene Transfer Vector Core, University of Iowa, Iowa City, IA). Three months post AdenoCre treatment, all mice were sacrificed for lung tumor examinations.
# PDLIM2flx/flx/SP-C-rtTAtg/−/(tetO)7CMV-Cretg/tg (ΔSPC) mice under a pure FVB/N background and PDLIM2−/− mice under a pure BABL/C background have been described before (Sun et al., Nat. Commun. 2019. 10, 5324). For lung carcinogenesis, six to eight week old ΔSPC and wild type FVB/N mice were intraperitoneally (i.p.) injected with urethane (1 mg/g body weight, Sigma-Aldrich, St. Louis, MO, USA) once a week for six consecutive weeks, followed by different treatment as shown in FIGS. 45A and 49A. Mice were sacrificed for lung inflammation and tumor examinations at six weeks post urethane treatment. Surface tumors in mouse lungs were counted blinded under a dissecting microscope, and tumor diameters were measured by microcalipers. […]
# PD-L1 [8] = test: qPCR of PD-L1 in lung cancer cells; type: cell-based, human
# From the text: Mouse lung tissues and BAL cells were subjected to RNA extraction, RNA reverse transcription and real-time PCR as described (Li et al., Oncoimmunology 7, e1435250 (2018); Sun et al., Bio. Protoc. 7, pii: e2287 (2017)).
# PD-L1 [9] = test: IHC staining of PD-L1 in lung cancer (urethane model); type: in vivo, mouse; settings: carboplatin and paclitaxel (chemotherapy)
# Experimental: as §2
# Mouse or tissues were excised, fixed in formalin, embedded in paraffin, and cut into […] sections. Sections were stained with H&E, or subjected to sequential incubations with different primary antibodies and peroxidase-conjugated goat anti-rabbit secondary antibodies. The human lung tumor tissue arrays were described previously (Sun et al., Oncogene 35, 2299-2310 (2016)).
# Lung tissues were excised, fixed in formalin, embedded in paraffin, and cut into 4-μm-thick sections. Sections were stained with H&E, or subjected to sequential incubations with the indicated primary antibodies, biotinylated secondary antibodies and streptavidin-HRP.
# human lung cancer cells = test: Cell growth assays; type: cell-based
# Experimental: Cells were seeded into 12-well plates at a density of 5,000 cells per well, in the presence or absence of the indicated treatment. Cell density was determined by replacing the medium with 2 μmol/L of calcein AM in 1× dissociation solution (Trevigen) at the indicated time points. After 1 h of incubation, diesterase activity (relative fluorescence units) was measured with a Tecan Infinite 200 Microplate Reader, using an excitation wavelength of 485 nm and emission wavelength of 520 nm.
# MDR1 = test: qPCR of MDR1 in A549 lung cancer cells; type: cell-based, human; settings: with or without PDLIM2 reconstitution
# RelA = test: Subcellular fraction-IB assay of nuclear RelA in lung cancer cells; type: cell-based, human; settings: for RelA activation: lung cancer cells
# [10] = ΔSPC mice vs WT, carboplatin and paclitaxel combination therapy (Chemo)
# [11] = ΔSPC mice, PD-1 blockade combined with carboplatin/paclitaxel chemotherapy
structure (smiles),measurement,setting,value
"Nc1ncn([C@H]2C[C@H](O)[C@@H](CO)O2)c(=O)n1 [5-aza-dC, 5-azadeoxycitidine]",animal body weight,[1],body weight loss
OO [H2O2],PDLIM2 expression (qPCR),PDLIM2 [2]; RAW264.7 macrophages treated with H2O2,PDLIM2 expression decrease; also recorded: decreased PDLIM2
same,nuclear BACH1 (nuclear fraction IB),BACH1 [3]; RAW264.7 macrophages,induced BACH1 nuclear translocation; also recorded: increased nuclear BACH1
same,BACH1 and Pol II bound to the pdlim2 promoter (ChIP),"BACH1 [3]; RAW264.7 mouse macrophages, 500 μM, 4 hours",detected BACH1 at the BACH1-binding site; also recorded: more BACH1 but less Pol II bound to the pdlim2 promoter
"CC(=O)N[C@@H](CS)C(=O)O [NAC, N-Acetyl-L-cysteine]",PDLIM2 expression (qPCR),PDLIM2 [2]; RAW264.7 macrophages in LLC lung tumor cell co-culture,could block the PDLIM2 suppression; also recorded: recovery
same,BACH1 nuclear translocation in AMs (IF),BACH1 [4],could efficiently be blocked; also recorded: inhibition of BACH1 nuclear translocation
same,PDLIM2 in AMs (IF),PDLIM2 [5],PDLIM2 induction
same,PDLIM2 in AMs (qPCR),PDLIM2 [5],could efficiently be blocked; also recorded: increased PDLIM2
"CC(/C=C/C(=O)NO)=C\[C@@H](C)C(=O)c1ccc(N(C)C)cc1 [TSA, Trichostatin A]",PDLIM2 expression (qPCR),PDLIM2 [6]; H460 human lung cancer cells,PDLIM2 recovery
same,PDLIM2 expression (qPCR),PDLIM2 [6]; human lung cancer cell lines,induced PDLIM2 re-expression
N.N.O=C([O-])C1(C(=O)[O-])CCC1.[Pt+2] [carboplatin],tumor number and tumor burden,[7],significant decrease in tumor number and tumor burden
same,lung cancer treatment (tumor examination),[7]; [10],more resistant; also recorded: increased resistance
same,lung cancer treatment (tumor examination),[7]; [11],resistant; also recorded: more resistant
same,PD-L1 expression (qPCR),PD-L1 [8]; Calu-6 human lung cancer cells,PD-L1 induction
same,PD-L1 expression (qPCR),PD-L1 [8]; lung cancer cells,PD-L1 induction
same,PD-L1 expression in lung cancer (IHC staining),PD-L1 [9],PD-L1 induction
CC(=O)O[C@H]1C(=O)[C@@]2(C)[C@H]([C@H](OC(=O)c3ccccc3)[C@]3(O)C[C@H](OC(=O)[C@H](O)[C@@H](NC(=O)c4ccccc4)c4ccccc4)C(C)=C1C3(C)C)[C@]1(OC(C)=O)CO[C@@H]1C[C@@H]2O [paclitaxel],tumor number and tumor burden,[7],significant decrease in tumor number and tumor burden
same,lung cancer treatment (tumor examination),[7]; [10],more resistant; also recorded: increased resistance
same,lung cancer treatment (tumor examination),[7]; [11],resistant; also recorded: more resistant
same,paclitaxel sensitivity (cell growth assays),"human lung cancer cells; A549 cells with PDLIM2 reconstitution, consecutive 9-day paclitaxel cycles",increased paclitaxel sensitivity
same,paclitaxel sensitivity (cell growth assays),"human lung cancer cells; H460 cells with PDLIM2 reconstitution, consecutive 9-day paclitaxel cycles",increased paclitaxel sensitivity
same,paclitaxel sensitivity (cell growth assays),human lung cancer cells; H460 human lung cancer cells with stable IκBα expression,overcame the paclitaxel resistance; also recorded: increased paclitaxel sensitivity
same,acquired resistance to paclitaxel,human lung cancer cells; lung cancer cells with ectopic PDLIM2 expression,overcame the acquired resistance; also recorded: block acquired resistance
same,PD-L1 expression (qPCR),PD-L1 [8]; lung cancer cells,PD-L1 induction
same,PD-L1 expression in lung cancer (IHC staining),PD-L1 [9],PD-L1 induction
same,MDR1 expression (qPCR),MDR1,PDLIM2 suppressed paclitaxel induction of MDR1
same,nuclear RelA (subcellular fraction-IB),RelA; H460 human lung cancer cells reconstituted with PDLIM2,much lower paclitaxel induction of nuclear RelA
same,RelA activation,RelA,further induced
same,RelA activation,RelA; listed as Paclitaxel,increased RelA activation
